The values below come from patent US8623327B2, “Imaging agents for use in magnetic resonance blood flow/perfusion imaging” (Beth Israel Deaconess Medical Center, Inc., priority 2006, dated 2014).

The test system of data set [1] is alcohol dehydrogenase enzyme. The following applies: cited from earlier work.
Data set [2] is described as follows: NMR relaxation time (T1, T2) measurement, saturation recovery. The data set is classed as physicochemical. The following applies: for median value of T1: 9.6 T.
For data set [3] the following is noted: cited from earlier work.
The conditions of data set [4]: cited from earlier work. The source holds these as a separate data set.
Where [5] appears, read: single saturated recovery experiment (FIGS. 2A and 2B).

Each structure is given as a SMILES string. Like-named read-outs stand apart in the source and are kept apart here.

Regarding `CC(C)(C)O` [t-butanol, tert-butyl alcohol], the “processing by alcohol dehydrogenase enzyme” value in data set [1] is listed as “not processed”.
Take `[2H]C([2H])([2H])[13C](O)(C([2H])([2H])[2H])C([2H])([2H])[2H]`: the “median value of T1” value in data set [2] (at 400 Mhz) turned out to be 64 ± 20 s. Besides, in data set [2] (at 400 Mhz, measured in water with oxygen present), the T1 is over 20 s. In data set [2] (setting [5]), the T1 is 46±4 and the T2 was 0.6±0.02.
On to `[3He]` [3He], for which the solubility in blood result in data set [3] is “not soluble in blood”.
As for `[Xe]` [Xenon], the relaxation time result in data set [4] (in blood) is “less than 10 seconds”; in data set [4] (in tissue), at least 2 s.
In the case of `[2H][13C]([2H])([2H])C(O)([13C]([2H])([2H])[2H])[13C]([2H])([2H])[2H]`, the “median value of T1” value in data set [2] (at 400 Mhz) amounted to 26 ± 5 s.
